Measurements published in patent US20100160304A1, “AROMATIC SULFONE COMPOUND AS ALDOSTERONE RECEPTOR MODULATOR” (Dainippon Sumitomo Pharma Co., Ltd, priority 2005, published 2010).

What was measured:
aldosterone receptor MR = molecular target: T1, aldosterone receptor MR (Rattus norvegicus, UniProt P22199); assay: Aldosterone receptor binding assay ([3H]aldosterone, soluble fraction of rat kidney); details: [3H]aldosterone 2 nM, 2 μM RU-486, 4° C. about 18 hours
T1 construct: the resultant supernatant was being a soluble fraction of the kidney; from tissue; host or cells: kidney of adrenalectomized rat, 105,000 G supernatant (soluble fraction)
T1 sequence (P22199 1-981): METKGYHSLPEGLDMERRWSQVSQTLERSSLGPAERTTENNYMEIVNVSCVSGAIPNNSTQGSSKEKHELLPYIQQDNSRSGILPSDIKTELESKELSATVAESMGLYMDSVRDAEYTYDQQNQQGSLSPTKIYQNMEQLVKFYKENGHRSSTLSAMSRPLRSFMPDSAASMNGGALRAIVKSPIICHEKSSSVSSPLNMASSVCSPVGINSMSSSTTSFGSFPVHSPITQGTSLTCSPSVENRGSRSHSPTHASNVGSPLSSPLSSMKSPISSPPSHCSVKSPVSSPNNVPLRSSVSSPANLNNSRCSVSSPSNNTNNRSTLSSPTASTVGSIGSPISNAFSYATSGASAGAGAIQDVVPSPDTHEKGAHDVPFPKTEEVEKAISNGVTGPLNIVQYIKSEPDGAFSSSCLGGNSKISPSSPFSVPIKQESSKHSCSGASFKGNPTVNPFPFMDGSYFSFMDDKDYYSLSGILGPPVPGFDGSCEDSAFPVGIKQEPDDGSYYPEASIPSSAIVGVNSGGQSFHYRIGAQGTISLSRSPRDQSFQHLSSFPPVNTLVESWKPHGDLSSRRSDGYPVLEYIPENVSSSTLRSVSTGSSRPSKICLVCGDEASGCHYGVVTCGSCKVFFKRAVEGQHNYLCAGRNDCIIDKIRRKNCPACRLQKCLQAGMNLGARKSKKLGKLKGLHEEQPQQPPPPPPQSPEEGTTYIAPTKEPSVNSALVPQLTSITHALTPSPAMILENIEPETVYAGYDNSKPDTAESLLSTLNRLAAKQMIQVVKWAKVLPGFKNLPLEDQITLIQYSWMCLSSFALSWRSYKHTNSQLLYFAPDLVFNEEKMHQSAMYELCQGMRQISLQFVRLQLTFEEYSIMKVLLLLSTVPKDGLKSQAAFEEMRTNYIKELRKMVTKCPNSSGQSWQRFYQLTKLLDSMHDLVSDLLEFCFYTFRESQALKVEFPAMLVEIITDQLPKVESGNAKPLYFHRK
Method: Flank incision (both sides) was subjected to a rat to adrenalectomize. After suturing the rat's incised parts, the rat was again returned to a breeding cage and bred for a duration of 3 to 5 days to collect a kidney from the rat; the collected kidney was homogenized with 0.1 M Tris-HCl, 0.25M sucrose, 0.1M Na2MoO4, 2 mM DTT buffer solution (pH 7.4), the resultant solution was subjected to centrifugal separation at 105,000 G for 30 minutes, and the resultant supernatant was being a soluble fraction of the kidney.
Thereafter, the reactant solution was added with 50 μL of 5% dextran coated charcoal and mixed, and then centrifugated at 3,000 G for 5 minutes. Subsequently, 100 μL of the supernatant was collected and mixed with 3.5 mL of liquid scintillator ACS-II (Amersham) to measure a radioactivity with a liquid scintillation counter (manufactured by Packard, Tri Carb 2700TR). A non-specific binding was determined by adding 2 μM of aldosterone to the reactant solution.
Binding inhibiting rate (%)=10−[(B−N)/(B0−N)]×100
B: Binding amount of the marker ligand in the co-presence of the tested substance and marker ligand,
B0: Binding amount of the marker ligand in the absence of the tested substance, and
N: Binding amount of the marker ligand in the presence of excess aldosterone (2 μM).

[1] = system: decrease of Na/K ratio in urine induced with aldosterone; assay: Antagonistic action (in vivo antagonist activity) against decrease of Na/K ratio in urine induced with aldosterone, adrenalectomized rat; details: oral 10 and 30 mg/kg, 30 minutes before subcutaneous aldosterone, urine collection 4 hours (FIG. 1)
Method: After anesthetizing a rat by administering 50 mg/kg of sodium pentobarbital in its abdominal cavity and disinfecting its skin with the Isodine diluted solution, the rat was incised. After adrenalectomy and confirming the hemostasis, the muscular layer and skin were sutured in this order and then the sutured part was disinfected with the Isodine diluted solution. After breeding 3 days or more, a rat showing good progress was subjected to the following test.
It was fasted from the day preceding an examination, put into a metabolic cage at the day of the examination, and then subjected to a urine collection for 4 hours. When a substance to be tested was administered orally, it was administered in an amount of 5 ml/kg with 0.5% methylcellulose as a solvent. The aldosterone was dissolved with 1% ethanol/physiological saline and administered subcutaneously. The substance to be tested was administered 30 minutes before administering aldosterone. In order to stabilize and sufficiently secure the amount of the urine, physiological saline was administered orally in an amount of 20 ml/kg at the time of administering aldosterone. The colleted urine, after measuring its volume, was subjected to a measurement of electrolyte (sodium: Na and potassium: K) concentration in the urine with a biochemistry autoanalyzer (manufactured by Beckman, Synchron CX3 system Delta).

| SMILES | IC50 (aldosterone receptor MR) [nM] | inhibition of the decrease of the urine Na/K ratio induced with aldosterone [1] |
| --- | --- | --- |
| CC1(C)OC(=S)Nc2ccc(NS(=O)(=O)c3cccs3)cc21 [Example 24, N-(4,4-Dimethyl-2-thioxo-1,4-dihydro-2H-3,1-benzoxazin-6-yl)thiophene-2-sulfonamide] | 13 | dose-dependently inhibited the decrease of the urine Na/K ratio |
| CC1=CC(C)(C)Nc2ccc(NS(=O)(=O)c3ccsc3)cc21 [Example 74, N-(2,2,4-Trimethyl-1,2-dihydroquinolin-6-yl)thiophene-3-sulfonamide] | 120 | – |
| CC1=CC(C)(C)Nc2ccc(NS(=O)(=O)c3cc4ccccc4s3)cc21 [Example 75, N-(2,2,4-Trimethyl-1,2-dihydroquinolin-6-yl)-1-benzothiophene-2-sulfonamide] | 390 | – |
| CC1=CC(C)(C)Nc2ccc(NS(=O)(=O)c3ccccc3C)cc21 [Example 78, 2-Methyl-N-(2,2,4-trimethyl-1,2-dihydroquinolin-6-yl)benzenesulfonamide] | 900 | – |
| CC1=CC(C)(C)Nc2cc(C)c(NS(=O)(=O)c3ccc(C)cc3)cc21 [Example 80, 4-Methyl-N-(2,2,4,7-tetramethyl-1,2-dihydroquinolin-6-yl)benzenesulfonamide] | 1300 | – |
| CC1=CC(C)(C)Nc2ccc(N(C)S(=O)(=O)c3ccc(C)cc3)cc21 [Example 81, N,4-Dimethyl-N-(2,2,4-trimethyl-1,2-dihydroquinolin-6-yl)benzenesulfonamide] | 500 | – |
| CC1=CC(C)(C)Nc2ccc(N(C)S(=O)(=O)c3cccs3)cc21 [Example 85, N-Methyl-N-(2,2,4-trimethyl-1,2-dihydroquinolin-6-yl)thiophene-2-sulfonamide] | 150 | – |
| CC(=O)N(c1ccc2c(c1)C(C)=CC(C)(C)N2)S(=O)(=O)c1ccc(C)cc1 [Example 86, N-[(4-Methylphenyl)sulfonyl]-N-(2,2,4-trimethyl-1,2-dihydroquinolin-6-yl)acetamide] | 270 | – |
| CC(=O)N(c1ccc2c(c1)C(C)=CC(C)(C)N2)S(=O)(=O)c1ccccc1 [Example 87, N-(Phenylsulfonyl)-N-(2,2,4-trimethyl-1,2-dihydroquinolin-6-yl)acetamide] | 500 | – |
| CC(=O)N(c1ccc2c(c1)C(C)=CC(C)(C)N2)S(=O)(=O)c1ccc(Cl)cc1 [Example 88, N-[(4-Chlorophenyl)sulfonyl]-N-(2,2,4-trimethyl-1,2-dihydroquinolin-6-yl) acetamide] | 300 | – |
| CC(=O)N(c1ccc2c(c1)C(C)=CC(C)(C)N2)S(=O)(=O)c1ccc(Cl)s1 [Example 89, N-[(5-Chloro-2-thienyl)sulfonyl]-N-(2,2,4-trimethyl-1,2-dihydroquinolin-6-yl)acetamide] | 300 | – |
| COC(=O)C(=O)N(c1ccc2c(c1)C(C)=CC(C)(C)N2)S(=O)(=O)c1cccs1 [Example 91, Methyl Oxo[(2-thienylsulfonyl)-(2,2,4-trimethyl-1,2-dihydroquinolin-6-yl)amino]acetate] | 100 | – |
| Cc1ccc(S(=O)(=O)Cc2ccc3c(c2)C(C)CC(C)(C)N3)cc1 (stereo not shown) [Example 96, 2,2,4-Trimethyl-6-{[(4-methylphenyl)sulfonyl]methyl}-1,2,3,4-tetrahydroquinoline] | 500 | – |
| Cc1ccc(S(=O)(=O)Nc2ccc3c(c2)C(C)CC(C)(C)N3)cc1 (stereo not shown) [Example 97, 4-Methyl-N-(2,2,4-trimethyl-1,2,3,4-tetrahydroquinolin-6-yl)benzenesulfonamide] | 2200 | – |
| CC1CC(C)(C)Nc2ccc(NS(=O)(=O)c3cccs3)cc21 (stereo not shown) [Example 98, N-(2,2,4-Trimethyl-1,2,3,4-tetrahydroquinolin-6-yl)thiophene-2-sulfonamide] | 94 | – |
| CC1CC(C)(C)Nc2ccc(NS(=O)(=O)c3ccc4ccccc4c3)cc21 (stereo not shown) [Example 99, N-(2,2,4-Trimethyl-1,2,3,4-tetrahydroquinolin-6-yl)naphthalene-2-sulfonamide] | 3900 | – |
| Cc1ccc(S(=O)(=O)N(C)c2ccc3c(c2)C(C)CC(C)(C)N3)cc1 (stereo not shown) [Example 100, N,4-Dimethyl-N-(2,2,4-trimethyl-1,2,3,4-tetrahydroquinolin-6-yl)benzenesulfonamide] | 2100 | – |
| CC(=O)N(c1ccc2c(c1)C(C)CC(C)(C)N2)S(=O)(=O)c1ccc(C)cc1 (stereo not shown) [Example 101, N-[(4-Methylphenyl)sulfonyl]-N-(2,2,4-trimethyl-1,2,3,4-tetrahydroquinolin-6-yl)acetamide] | 190 | – |
| Cc1ccc(S(=O)(=O)Cc2ccc3c(c2)CCC(C(F)(F)F)N3)cc1 (stereo not shown) [Example 104, 6-{[(4-Methylphenyl)sulfonyl]methyl}-2-(trifluoromethyl)-1,2,3,4-tetrahydroquinoline] | 1800 | – |
| Cc1ccc(S(=O)(=O)Oc2ccc(NS(C)(=O)=O)cc2)cc1 [Example 105, 4-[(Methylsulfonyl)amino]phenyl 4-methylbenzenesulfonate] | 6600 | – |
| CCCCS(=O)(=O)Nc1ccc(OS(=O)(=O)c2ccc(C)cc2)cc1 [Example 106, 4-[(Butylsulfonyl)amino]phenyl 4-methylbenzenesulfonate] | 8000 | – |
| Cc1ccc(S(=O)(=O)Oc2ccc(NS(C)(=O)=O)cc2C)cc1 [Example 109, 2-Methyl-4-[(methylsulfonyl)amino]phenyl 4-methylbenzenesulfonate] | 16000 | – |
| Cc1ccc(S(=O)(=O)Oc2ccc(NS(C)(=O)=O)cc2F)cc1 [Example 110, 2-Fluoro-4-[(methylsulfonyl)amino]phenyl 4-methylbenzenesulfonate] | 9400 | – |
| Cc1ccc(S(=O)(=O)Cc2ccc(NS(C)(=O)=O)cc2)cc1 [Example 112, N-(4-{[(4-Methylphenyl)sulfonyl]methyl}phenyl)methanesulfonamide] | 5400 | – |
